Data published in ChEMBL document CHEMBL3885881, “DrugMatrix”.

Species on record: Rattus norvegicus
Assay: DrugMatrix - Regimen: Daily Repeat
Type: toxicity, organism-based, Sprague-Dawley
Design: regimen Daily Repeat, gender Male, age 6-8 weeks
Settings: in vivo, po, route oral GAVAGE, […]; for ABSOLUTE BASOPHIL / ABSOLUTE EOSINOPHIL / ABSOLUTE LYMPHOCYTE / ABSOLUTE MONOCYTE / ABSOLUTE SEGMENTED NEUTROPHIL / BASOPHIL / EOSINOPHIL / ERYTHROCYTE COUNT / HEMATOCRIT / HEMOGLOBIN / LEUKOCYTE COUNT / LYMPHOCYTE / MEAN CORPUSCULAR HEMOGLOBIN / MEAN CORPUSCULAR HEMOGLOBIN CONCENTRATION / MEAN CORPUSCULAR VOLUME / MONOCYTE / NEUTROPHIL / NUCLEATED RED BLOOD CELLS / PLATELET COUNT: tissue Blood; for ALANINE AMINOTRANSFERASE / ALBUMIN / ALKALINE PHOSPHATASE / ASPARTATE AMINOTRANSFERASE / BLOOD UREA NITROGEN / CARBON DIOXIDE / CHLORIDE / CHOLESTEROL / CREATINE PHOSPHOKINASE / CREATININE / GLUCOSE / LACTATE DEHYDROGENASE / LIPASE / PHOSPHORUS / POTASSIUM / SODIUM / TOTAL BILIRUBIN / TOTAL PROTEIN / URIC ACID: tissue Plasma
[1] = 0 mg/kg, 72 h, dose level Control, time 3 day
[2] = 0 mg/kg, 120 h, dose level Control, time 5 day
[3] = 30 mg/kg, 72 h, dose level Low, time 3 day

Cc1oncc1C(=O)Nc1ccc(C(F)(F)F)cc1 [LEFLUNOMIDE]
ABSOLUTE BASOPHIL [1]: 0 CELLS/uL
ABSOLUTE EOSINOPHIL [1]: 52.33 CELLS/uL
ABSOLUTE LYMPHOCYTE [1]: 9105.33 CELLS/uL
ABSOLUTE MONOCYTE [1]: 155.67 CELLS/uL
ABSOLUTE SEGMENTED NEUTROPHIL [1]: 1020 CELLS/uL
BASOPHIL [1]: 0%
EOSINOPHIL [1]: 0.33%
ERYTHROCYTE COUNT [1]: 5.03 x10E6/uL
HEMATOCRIT [1]: 31.63%
HEMOGLOBIN [1]: 12.37 G/DL
LEUKOCYTE COUNT [1]: 10.33 x10E3/uL
LYMPHOCYTE [1]: 87%
MEAN CORPUSCULAR HEMOGLOBIN [1]: 24.57 pg
MEAN CORPUSCULAR HEMOGLOBIN CONCENTRATION [1]: 39.07 G/DL
MEAN CORPUSCULAR VOLUME [1]: 62.93 fL
MONOCYTE [1]: 1.33%
NEUTROPHIL [1]: 11.33%
NUCLEATED RED BLOOD CELLS [1]: 0 /100WBC
PLATELET COUNT [1]: 896 x10E3/uL
ALANINE AMINOTRANSFERASE [1]: 75.33 u/L
ALBUMIN [1]: 3.77 G/DL
ALKALINE PHOSPHATASE [1]: 378.67 u/L
ASPARTATE AMINOTRANSFERASE [1]: 101.33 u/L
BLOOD UREA NITROGEN [1]: 11.33 mg/dL
CARBON DIOXIDE [1]: 25 mmol/L
CHLORIDE [1]: 99 MEQ/L
CHOLESTEROL [1]: 66 mg/dL
CREATINE PHOSPHOKINASE [1]: 277 u/L
CREATININE [1]: 0.33 mg/dL
GLUCOSE [1]: 198.33 mg/dL
LACTATE DEHYDROGENASE [1]: 140.33 u/L
LIPASE [1]: 11.33 u/L
PHOSPHORUS [1]: 11.83 mg/dL
POTASSIUM [1]: 5.37 MEQ/L
SODIUM [1]: 141.03 MEQ/L
TOTAL BILIRUBIN [1]: 0.2 mg/dL
TOTAL PROTEIN [1]: 5.47 G/DL
URIC ACID [1]: 0.93 mg/dL
ABSOLUTE BASOPHIL [2]: 0 CELLS/uL
ABSOLUTE EOSINOPHIL [2]: 0 CELLS/uL
ABSOLUTE LYMPHOCYTE [2]: 8734 CELLS/uL
ABSOLUTE MONOCYTE [2]: 98.67 CELLS/uL
ABSOLUTE SEGMENTED NEUTROPHIL [2]: 1034 CELLS/uL
BASOPHIL [2]: 0%
EOSINOPHIL [2]: 0%
ERYTHROCYTE COUNT [2]: 5.19 x10E6/uL
HEMATOCRIT [2]: 33.2%
HEMOGLOBIN [2]: 12.93 G/DL
LEUKOCYTE COUNT [2]: 9.87 x10E3/uL
LYMPHOCYTE [2]: 87%
MEAN CORPUSCULAR HEMOGLOBIN [2]: 25 pg
MEAN CORPUSCULAR HEMOGLOBIN CONCENTRATION [2]: 39.03 G/DL
MEAN CORPUSCULAR VOLUME [2]: 63.93 fL
MONOCYTE [2]: 1%
NEUTROPHIL [2]: 12%
NUCLEATED RED BLOOD CELLS [2]: 0 /100WBC
PLATELET COUNT [2]: 1190 x10E3/uL
ALANINE AMINOTRANSFERASE [2]: 75.67 u/L
ALBUMIN [2]: 4 G/DL
ALKALINE PHOSPHATASE [2]: 384.33 u/L
ASPARTATE AMINOTRANSFERASE [2]: 89.67 u/L
BLOOD UREA NITROGEN [2]: 13 mg/dL
CARBON DIOXIDE [2]: 32.67 mmol/L
CHLORIDE [2]: 103 MEQ/L
CHOLESTEROL [2]: 79.67 mg/dL
CREATINE PHOSPHOKINASE [2]: 199.33 u/L
CREATININE [2]: 0.29 mg/dL
GLUCOSE [2]: 161.33 mg/dL
LACTATE DEHYDROGENASE [2]: 92.33 u/L
LIPASE [2]: 11.67 u/L
PHOSPHORUS [2]: 10.8 mg/dL
POTASSIUM [2]: 5.38 MEQ/L
SODIUM [2]: 145.3 MEQ/L
TOTAL BILIRUBIN [2]: 0.17 mg/dL
TOTAL PROTEIN [2]: 5.7 G/DL
URIC ACID [2]: 0.63 mg/dL
ABSOLUTE BASOPHIL [3]: 0 CELLS/uL
ABSOLUTE EOSINOPHIL [3]: 0 CELLS/uL
ABSOLUTE LYMPHOCYTE [3]: 5968 CELLS/uL
ABSOLUTE MONOCYTE [3]: 69 CELLS/uL
ABSOLUTE SEGMENTED NEUTROPHIL [3]: 863 CELLS/uL
BASOPHIL [3]: 0%
EOSINOPHIL [3]: 0%
ERYTHROCYTE COUNT [3]: 5.11 x10E6/uL
HEMATOCRIT [3]: 32.33%
HEMOGLOBIN [3]: 12.8 G/DL
LEUKOCYTE COUNT [3]: 6.9 x10E3/uL
LYMPHOCYTE [3]: 87%
MEAN CORPUSCULAR HEMOGLOBIN [3]: 25.03 pg
MEAN CORPUSCULAR HEMOGLOBIN CONCENTRATION [3]: 39.63 G/DL
MEAN CORPUSCULAR VOLUME [3]: 63.2 fL
MONOCYTE [3]: 1%
NEUTROPHIL [3]: 12%
NUCLEATED RED BLOOD CELLS [3]: 0 /100WBC
PLATELET COUNT [3]: 794.67 x10E3/uL
ALANINE AMINOTRANSFERASE [3]: 46.33 u/L
ALBUMIN [3]: 3.67 G/DL
ALKALINE PHOSPHATASE [3]: 251.33 u/L
ASPARTATE AMINOTRANSFERASE [3]: 75.67 u/L
BLOOD UREA NITROGEN [3]: 8 mg/dL
CARBON DIOXIDE [3]: 29.67 mmol/L
CHLORIDE [3]: 101.33 MEQ/L
CHOLESTEROL [3]: 98.67 mg/dL
CREATINE PHOSPHOKINASE [3]: 199.67 u/L
CREATININE [3]: 0.1 mg/dL
GLUCOSE [3]: 181.33 mg/dL
LACTATE DEHYDROGENASE [3]: 70 u/L
LIPASE [3]: 10.67 u/L
PHOSPHORUS [3]: 9.87 mg/dL
POTASSIUM [3]: 4.69 MEQ/L
SODIUM [3]: 144.17 MEQ/L
TOTAL BILIRUBIN [3]: 0.13 mg/dL
TOTAL PROTEIN [3]: 5.17 G/DL
URIC ACID [3]: 0.53 mg/dL
